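Each compound was tested at five concentrations against cells in 96-well plates for 48 hours. TGI marks complete inhibition of growth.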
How the values were obtained:
Assay in all cases: growth of human tumour cells (NCI), 48 h
[1] = system: A549 NSCLC
[2] = system: OVCAR-3 ovarian
[3] = system: EKVX NSCLC
[4] = system: NCI/ADR-RES ovarian
[5] = system: RXF 393 renal
[6] = system: SK-MEL-2 melanoma
[7] = system: HCC-2998 colon
[8] = system: A498 renal
[9] = system: SNB-19 CNS
[10] = system: T-47D breast
[11] = system: U251 CNS
[12] = system: MOLT-4 leukemia
[13] = system: SK-OV-3 ovarian
[14] = system: HCT-116 colon
[15] = system: DU-145 prostate
[16] = system: RPMI-8226 leukemia
[17] = system: LOX IMVI melanoma
[18] = system: UACC-62 melanoma
[19] = system: HCT-15 colon
[20] = system: MDA-MB-231 breast
[21] = system: UACC-257 melanoma
[22] = system: K-562 leukemia
[23] = system: COLO 205 colon
[24] = system: SNB-75 CNS
[25] = system: M14 melanoma
[26] = system: KM12 colon
[27] = system: BT-549 breast
[28] = system: SW-620 colon
[29] = system: 786-0 renal
[30] = system: MCF7 breast
[31] = system: PC-3 prostate
[32] = system: NCI-H460 lung
[33] = system: TK-10 renal
[34] = system: NCI-H23 lung
[35] = system: HOP-92 NSCLC
[36] = system: CCRF-CEM leukemia
[37] = system: SK-MEL-28 melanoma
[38] = system: OVCAR-5 ovarian
[39] = system: UO-31 renal
[40] = system: ACHN renal
[41] = system: MDA-MB-435
[42] = system: SF-268 CNS
[43] = system: HOP-62 NSCLC
[44] = system: SK-MEL-5 melanoma
[45] = system: CAKI-1 renal
[46] = system: OVCAR-4 ovarian
[47] = system: NCI-H226 lung
[48] = system: SF-295 CNS
[49] = system: OVCAR-8 ovarian

Measured: TGI

Cc1ccc(C2c3c(n(C)c(=O)n(C)c3=O)OC(N(C)C)(N(C)C)C2(F)F)cc1 (centres undefined)
not listed: [49]
> 100 µM: all other assays above

Cc1cc(C)c(C#N)c(SC(=S)NC(=O)c2ccc(Cl)cc2)n1
not listed: [12] | [22] | [47]
> 100 µM: all other assays above

From PubChem BioAssay (NCI)
